Key:
[1] = Tissue, plasma and GI content pharmacokinetics of tacrolimus, oral vs intra-cecal ingestible device (Example 10); parameters: species or system Yorkshire-Cross farm swine; details: in vivo
Protocol: The primary objective of this study was to compare the tissue, plasma, rectal sample, and GI content pharmacokinetics of tacrolimus through oral versus intra-cecal ingestible device delivery in normal Yorkshire-Cross farm swine.
(§1) No further randomization procedure was employed.
Animals in Group 1 received an ingestible device containing 0.8 mL of vehicle solution (80% alcohol, 20% HCO-60). Animals in Group 2 received orally […] liquid formulation of tacrolimus at 4 mg/0.8 mL per animal (Prograf: 5 mg/mL). Animals in Group 3 received intracecally an ingestible device containing tacrolimus at 1 mg in 0.8 mL per ingestible device. […]
Approximately 200˜400 mg of rectal content were collected, if available, with a fecal swab (Copan Diagnostics Nylon Flocked Dry Swabs, 502CS01). The fecal swab was pre-weighed and weighed after collection in the collection tube (Sterile Tube and Cap No Media, PFPM913S), and the sample weight was recorded. […]
For tissue necropsy, small intestine fluid and cecal fluid were collected separately from all the animals into two separate square plastic bottles, and stored at −20° C. The length and diameter of the cecum and the colon was measured from one animal in each group and recorded for reference. […] All samples were weighed, and the tissue sample weights were recorded. […]

[2] = Pharmacokinetic study of oral vs intra-cecal administration of tacrolimus (Example 13); parameters: species or system Yorkshire-Cross farm swine; details: female, Yorkshire-Cross, in vivo, 0.09 mg/kg
Description: as §1

C=CC[C@@H]1/C=C(\C)C[C@H](C)C[C@H](OC)[C@H]2O[C@@](O)(C(=O)C(=O)N3CCCC[C@H]3C(=O)O[C@H](/C(C)=C/[C@@H]3CC[C@@H](O)[C@H](OC)C3)[C@H](C)[C@@H](O)CC1=O)[C@H](C)C[C@@H]2OC [tacrolimus]
level detected in tissue [1]: No measurable level | Ratio Tissue (mean) (ng/g)/AUG(0-12 hr) (ng · hr/mL) ([2]; pig, 12 h): 0 | Trough (12 hr) ([2]; pig, 12 h): 0.568 ng/mL | Kp at 12 h ([2]; swine): 0 | Ratio Tissue (mean) (ng/g)/Tough(12 hr)(ng/mL) ([2]; swine, 12 h): 0
